We go through one compound from PMC5218480 (PLoS ONE, 2017).

For the assay, the system named is MV-4-11 cells. The experiment in a line: Gene expression microarray analysis (Affymetrix PrimeView) and GSEA. To be noted: ProbeSet 11717914_a_at; LIST B. The assay is classed as cell-based, human. Also on record: RFU PODN (11730768_x_at) / Fold change /veh PODN (11730768_x_at) / RFU LINC00158 (11744669_a_at) / Fold change /veh LINC00158 (11744669_a_at) / RFU DUSP10 (11751237_a_at) / Fold change /veh DUSP10 (11751237_a_at) / RFU ID3 (11757404_x_at) / Fold change /veh ID3 (11757404_x_at) / RFU PLEKHG5 (11737974_s_at) / Fold change /veh PLEKHG5 (11737974_s_at) / RFU LRRC4B (11730491_at) / Fold change /veh LRRC4B (11730491_at) / RFU GIMAP4 (11747438_a_at) / Fold change /veh GIMAP4 (11747438_a_at) / RFU KRT8 (11758183_x_at) / Fold change /veh KRT8 (11758183_x_at) / RFU CNN1 (11734310_a_at) / Fold change /veh CNN1 (11734310_a_at) / RFU VPS37D (11726825_at) / Fold change /veh VPS37D (11726825_at) / RFU C10orf10 (11716522_x_at) / Fold change /veh C10orf10 (11716522_x_at) / RFU KIR2DL2 /// KIR2DL4 /// KIR2DL5A /// KIR2DL5B /// KIR2DS1 /// KIR2DS2 /// KIR2DS3 /// KIR2DS4 /// KIR3DL3 /// KIR3DL3 /// KIR3DS1 (11738374_at) / Fold change /veh KIR2DL2 /// KIR2DL4 /// KIR2DL5A /// KIR2DL5B /// KIR2DS1 /// KIR2DS2 /// KIR2DS3 /// KIR2DS4 /// KIR3DL3 /// KIR3DL3 /// KIR3DS1 (11738374_at) / RFU C1QL1 (11718748_at) / Fold change /veh C1QL1 (11718748_at) / RFU TMPRSS4 (11747572_a_at) / Fold change /veh TMPRSS4 (11747572_a_at) / RFU HAMP (11756126_x_at) / Fold change /veh HAMP (11756126_x_at) / RFU RNFT2 (11725882_a_at) / Fold change /veh RNFT2 (11725882_a_at) / RFU NR4A2 (11747474_a_at) / Fold change /veh NR4A2 (11747474_a_at) / RFU ABCC12 (11746883_a_at) / Fold change /veh ABCC12 (11746883_a_at) / RFU TMEM136 (11760407_x_at) / Fold change /veh TMEM136 (11760407_x_at) / RFU CLDN22 /// WWC2 (11732394_at) / Fold change /veh CLDN22 /// WWC2 (11732394_at) / RFU HLA-DPB1 (11760878_x_at) / Fold change /veh HLA-DPB1 (11760878_x_at) / RFU SPINT1 (11716480_a_at) / Fold change /veh SPINT1 (11716480_a_at) / RFU GAP43 (11754022_s_at) / Fold change /veh GAP43 (11754022_s_at) / RFU A4GNT (11735810_at) / Fold change /veh A4GNT (11735810_at) / RFU PRB3 (11715151_x_at) / Fold change /veh PRB3 (11715151_x_at) / RFU TUBB4B (11761932_at) / Fold change /veh TUBB4B (11761932_at) / RFU CAPN14 (11732068_a_at) / Fold change /veh CAPN14 (11732068_a_at) / RFU TMCC2 (11721928_a_at) / Fold change /veh TMCC2 (11721928_a_at) / RFU IRGQ (11745062_a_at) / Fold change /veh IRGQ (11745062_a_at) / RFU FAM174B (11720279_a_at) / Fold change /veh FAM174B (11720279_a_at) / RFU TMPRSS4 (11748680_a_at) / Fold change /veh TMPRSS4 (11748680_a_at) / RFU FAM212B (11763350_a_at) / Fold change /veh FAM212B (11763350_a_at) / RFU PLEKHG5 (11743358_a_at) / Fold change /veh PLEKHG5 (11743358_a_at) / RFU ZSCAN30 (11745921_a_at) / Fold change /veh ZSCAN30 (11745921_a_at) / RFU CMKLR1 (11741424_a_at) / Fold change /veh CMKLR1 (11741424_a_at) / RFU LOC101060620 /// MAPK8IP1 (11723275_at) / Fold change /veh LOC101060620 /// MAPK8IP1 (11723275_at) / RFU SPTSSB (11747773_x_at) / Fold change /veh SPTSSB (11747773_x_at) / RFU PRSS12 (11739890_at) / Fold change /veh PRSS12 (11739890_at) / RFU BIN1 (11741810_x_at) / Fold change /veh BIN1 (11741810_x_at) / RFU WNT11 (11732464_a_at) / Fold change /veh WNT11 (11732464_a_at) / RFU C10orf10 (11716521_a_at) / Fold change /veh C10orf10 (11716521_a_at) / RFU C5orf56 (11738089_at) / Fold change /veh C5orf56 (11738089_at) / RFU CYB561 (11721691_x_at) / Fold change /veh CYB561 (11721691_x_at) / RFU ANKRD19P (11752326_a_at) / Fold change /veh ANKRD19P (11752326_a_at) / RFU OR2T12 /// OR2T33 /// OR2T8 (11738714_s_at) / Fold change /veh OR2T12 /// OR2T33 /// OR2T8 (11738714_s_at) / RFU VCAN (11748164_a_at) / Fold change /veh VCAN (11748164_a_at) / RFU JSRP1 (11732532_at) / Fold change /veh JSRP1 (11732532_at) / RFU KRTAP10-11 (11738290_x_at) / Fold change /veh KRTAP10-11 (11738290_x_at) / RFU MYO3A (11730013_a_at) / Fold change /veh MYO3A (11730013_a_at) / RFU EBF3 (11725865_a_at) / Fold change /veh EBF3 (11725865_a_at) / RFU CAMK2N1 (11719241_x_at) / Fold change /veh CAMK2N1 (11719241_x_at) / RFU C5orf56 (11738088_a_at) / Fold change /veh C5orf56 (11738088_a_at) / RFU OLFML3 (11715873_a_at) / Fold change /veh OLFML3 (11715873_a_at) / RFU LOC100653217 /// NTM (11731650_a_at) / Fold change /veh LOC100653217 /// NTM (11731650_a_at) / RFU MAPK11 (11762145_a_at) / Fold change /veh MAPK11 (11762145_a_at) / RFU FIZ1 (11724087_x_at) / Fold change /veh FIZ1 (11724087_x_at) / RFU OASL (11726364_x_at) / Fold change /veh OASL (11726364_x_at) / RFU SOX15 (11748057_x_at) / Fold change /veh SOX15 (11748057_x_at) / RFU CD79A (11719716_a_at) / Fold change /veh CD79A (11719716_a_at) / RFU HIST1H1D (11736915_at) / Fold change /veh HIST1H1D (11736915_at) / RFU CASKIN2 (11723855_a_at) / Fold change /veh CASKIN2 (11723855_a_at) / RFU LOC730098 (11760151_x_at) / Fold change /veh LOC730098 (11760151_x_at) / RFU OR4N2 (11742367_at) / Fold change /veh OR4N2 (11742367_at) / RFU PRRT2 (11749266_a_at) / Fold change /veh PRRT2 (11749266_a_at) / RFU SNX32 (11753110_a_at) / Fold change /veh SNX32 (11753110_a_at) / RFU CDHR5 (11726645_a_at) / Fold change /veh CDHR5 (11726645_a_at) / RFU RCAN1 (11760418_a_at) / Fold change /veh RCAN1 (11760418_a_at) / RFU FAM167A (11723789_a_at) / Fold change /veh FAM167A (11723789_a_at) / RFU FAM26E (11764081_at) / Fold change /veh FAM26E (11764081_at) / RFU ISYNA1 (11749810_s_at) / Fold change /veh ISYNA1 (11749810_s_at) / RFU ACY1 (11761880_at) / Fold change /veh ACY1 (11761880_at) / RFU 11764098_at / Fold change /veh 11764098_at / RFU SAMD14 (11745864_x_at) / Fold change /veh SAMD14 (11745864_x_at) / RFU NPB (11741838_a_at) / Fold change /veh NPB (11741838_a_at) / RFU TMPRSS6 (11731388_a_at) / Fold change /veh TMPRSS6 (11731388_a_at) / RFU KRTAP10-2 (11738614_at) / Fold change /veh KRTAP10-2 (11738614_at) / RFU ARHGAP8 /// PRR5-ARHGAP8 (11727945_x_at) / Fold change /veh ARHGAP8 /// PRR5-ARHGAP8 (11727945_x_at) / RFU KRTAP5-7 /// NADSYN1 (11734609_at) / Fold change /veh KRTAP5-7 /// NADSYN1 (11734609_at) / RFU RASL12 (11751679_a_at) / Fold change /veh RASL12 (11751679_a_at) / RFU CDKN2B (11736163_a_at) / Fold change /veh CDKN2B (11736163_a_at) / RFU PRF1 (11729649_at) / Fold change /veh PRF1 (11729649_at) / RFU, ZNF638 /// ZNF638-IT1 / Fold change vs veh, ZNF638 /// ZNF638-IT1 / RFU, PANK3 / Fold change vs veh, PANK3 / RFU, SH3YL1 / Fold change vs veh, SH3YL1 / RFU, ZEB2 / Fold change vs veh, ZEB2 / RFU, NRIP1 / Fold change vs veh, NRIP1 / RFU, PTTG1IP / Fold change vs veh, PTTG1IP / RFU, CAPN2 / Fold change vs veh, CAPN2 / RFU, MED14 / Fold change vs veh, MED14 / RFU, SNORA58 / Fold change vs veh, SNORA58 / RFU, C1orf63 / Fold change vs veh, C1orf63 / RFU, LRRFIP1 / Fold change vs veh, LRRFIP1 / RFU, NDUFAF7 / Fold change vs veh, NDUFAF7 / RFU, SLC12A2 / Fold change vs veh, SLC12A2 / RFU, IBTK / Fold change vs veh, IBTK / RFU, ESF1 / Fold change vs veh, ESF1 / Fold change vs veh, TMEM50B / RFU, TAOK1 / Fold change vs veh, TAOK1 / RFU, ACBD3 / Fold change vs veh, ACBD3 / RFU, TMA16 / Fold change vs veh, TMA16 / RFU, RWDD3 / Fold change vs veh, RWDD3 / RFU, BCAT1 / Fold change vs veh, BCAT1 / RFU, EDEM3 / Fold change vs veh, EDEM3 / RFU, TMEM33 / Fold change vs veh, TMEM33 / RFU, WDR75 / Fold change vs veh, WDR75 / RFU, AHCTF1 / Fold change vs veh, AHCTF1 / RFU, TFRC / Fold change vs veh, TFRC / RFU, ZDHHC17 / Fold change vs veh, ZDHHC17 / RFU, NOM1 / Fold change vs veh, NOM1 / RFU, ARL8B / Fold change vs veh, ARL8B / RFU, ZBTB11 / Fold change vs veh, ZBTB11 / RFU, TAMM41 / Fold change vs veh, TAMM41 / RFU, KIAA1704 /// LOC100996395 / Fold change vs veh, KIAA1704 /// LOC100996395 / RFU, ING1 / Fold change vs veh, ING1 / RFU, TRMT61B / Fold change vs veh, TRMT61B / RFU, FUBP3 / Fold change vs veh, FUBP3 / RFU, TP53 / Fold change vs veh, TP53 / RFU, TNKS2 / Fold change vs veh, TNKS2 / RFU, ZFP14 / Fold change vs veh, ZFP14 / RFU, ACTR2 / Fold change vs veh, ACTR2 / RFU, PPP3R1 / Fold change vs veh, PPP3R1 / RFU, PIK3R1 / Fold change vs veh, PIK3R1 / RFU, HNRNPA1 / Fold change vs veh, HNRNPA1 / RFU, RNF170 / Fold change vs veh, RNF170 / RFU, ZNF28 / Fold change vs veh, ZNF28 / RFU, RNGTT / Fold change vs veh, RNGTT / RFU, OGT / Fold change vs veh, OGT / RFU, BRD1 / Fold change vs veh, BRD1 / RFU, MARS / Fold change vs veh, MARS / RFU, ZNF655 / Fold change vs veh, ZNF655 / RFU, FAHD1 / Fold change vs veh, FAHD1 / RFU, BDP1 / Fold change vs veh, BDP1 / RFU, LRRCC1 / Fold change vs veh, LRRCC1 / RFU, ARID1A / Fold change vs veh, ARID1A / RFU, ZNF146 / Fold change vs veh, ZNF146 / RFU, ZNF330 / Fold change vs veh, ZNF330 / RFU, GPN3 / Fold change vs veh, GPN3 / RFU, C9orf123 / Fold change vs veh, C9orf123 / RFU, N4BP2L2 / Fold change vs veh, N4BP2L2 / RFU, ARFIP1 / Fold change vs veh, ARFIP1 / RFU, FAM179B / Fold change vs veh, FAM179B / RFU, BCL10 / Fold change vs veh, BCL10 / RFU, UHRF1BP1L / Fold change vs veh, UHRF1BP1L / RFU, BET1 / Fold change vs veh, BET1 / RFU, CNOT2 / Fold change vs veh, CNOT2 / RFU, ZNF268 / Fold change vs veh, ZNF268 / Fold change vs veh, ZNF507 / RFU, DGCR2 / Fold change vs veh, DGCR2 / RFU, WDSUB1 / Fold change vs veh, WDSUB1 / Fold change vs veh, HSP90B1 /// MIR3652 / RFU, ADSS / Fold change vs veh, ADSS / RFU, GK / Fold change vs veh, GK / RFU, ZNF148 / Fold change vs veh, ZNF148 / RFU, TAF9 / Fold change vs veh, TAF9 / RFU, SLC1A5 / Fold change vs veh, SLC1A5 / RFU, SLMO2 / Fold change vs veh, SLMO2 / RFU, ABCC4 / Fold change vs veh, ABCC4 / RFU, LOC101060439 /// RAP1B / Fold change vs veh, LOC101060439 /// RAP1B / RFU, RFX7 / Fold change vs veh, RFX7 / RFU, GTPBP10 / Fold change vs veh, GTPBP10 / RFU, CNEP1R1 / Fold change vs veh, CNEP1R1 / RFU, BIVM-ERCC5 /// ERCC5 / Fold change vs veh, BIVM-ERCC5 /// ERCC5 / RFU, ILF3 / Fold change vs veh, ILF3 / RFU 11762660_at / Fold change /veh 11762660_at / RFU VCAN (11757783_s_at) / Fold change /veh VCAN (11757783_s_at) / RFU DDX43 (11728927_at) / Fold change /veh DDX43 (11728927_at) / RFU KRT8 (11758188_x_at) / Fold change /veh KRT8 (11758188_x_at) / RFU NKD1 (11759106_at) / Fold change /veh NKD1 (11759106_at) / RFU SRD5A1 (11742802_a_at) / Fold change /veh SRD5A1 (11742802_a_at) / RFU TPSAB1 /// TPSB2 (11721975_s_at) / Fold change /veh TPSAB1 /// TPSB2 (11721975_s_at) / RFU GSTM3 (11746129_a_at) / Fold change /veh GSTM3 (11746129_a_at) / RFU IL23R (11737362_x_at) / Fold change /veh IL23R (11737362_x_at) / RFU TMEM51 (11727254_a_at) / Fold change /veh TMEM51 (11727254_a_at) / RFU PIWIL2 (11732686_x_at) / Fold change /veh PIWIL2 (11732686_x_at) / RFU ORM1 (11744905_x_at) / Fold change /veh ORM1 (11744905_x_at) / RFU CCDC152 (11743942_at) / Fold change /veh CCDC152 (11743942_at) / RFU ECM1 (11717891_a_at) / Fold change /veh ECM1 (11717891_a_at) / RFU IL23R (11748794_a_at) / Fold change /veh IL23R (11748794_a_at) / RFU TNFAIP8L3 (11732012_x_at) / Fold change /veh TNFAIP8L3 (11732012_x_at) / RFU MBOAT4 (11741988_at) / Fold change /veh MBOAT4 (11741988_at) / RFU 11764193_at / Fold change /veh 11764193_at / RFU TMEM53 (11763286_at) / Fold change /veh TMEM53 (11763286_at) / RFU MAGEB2 (11727129_at) / Fold change /veh MAGEB2 (11727129_at) / RFU TMEM200A (11744735_a_at) / Fold change /veh TMEM200A (11744735_a_at) / RFU CCDC152 (11751479_a_at) / Fold change /veh CCDC152 (11751479_a_at) / RFU FAM211A (11726209_a_at) / Fold change /veh FAM211A (11726209_a_at) / RFU RGS16 (11746705_a_at) / Fold change /veh RGS16 (11746705_a_at) / RFU VCAN (11755009_s_at) / Fold change /veh VCAN (11755009_s_at) / RFU RHOB (11743442_s_at) / Fold change /veh RHOB (11743442_s_at) / RFU RGS16 (11720943_a_at) / Fold change /veh RGS16 (11720943_a_at) / RFU RGS16 (11720944_at) / Fold change /veh RGS16 (11720944_at) / RFU, VPS4B / Fold change vs veh, VPS4B / RFU, CREB1 / Fold change vs veh, CREB1 / RFU, DNAJC13 / Fold change vs veh, DNAJC13 / RFU, GNAQ / Fold change vs veh, GNAQ / RFU, CDK5R1 / Fold change vs veh, CDK5R1 / RFU, ZRANB3 / Fold change vs veh, ZRANB3 / RFU, CUL4A / Fold change vs veh, CUL4A / RFU, CCNY / Fold change vs veh, CCNY / RFU, UFL1 / Fold change vs veh, UFL1 / RFU, COG3 / Fold change vs veh, COG3 / RFU, DIAPH2 / Fold change vs veh, DIAPH2 / RFU, SKA2 / Fold change vs veh, SKA2 / RFU, AFF3 / Fold change vs veh, AFF3 / RFU, LMF1 / Fold change vs veh, LMF1 / RFU, IPO11 / Fold change vs veh, IPO11 / RFU, DFFB / Fold change vs veh, DFFB / RFU, FOXP1 / Fold change vs veh, FOXP1 / RFU, CARD8 / Fold change vs veh, CARD8 / RFU, STRN3 / Fold change vs veh, STRN3 / RFU, ADK / Fold change vs veh, ADK / RFU, RASSF2 / Fold change vs veh, RASSF2 / RFU, WIPF1 / Fold change vs veh, WIPF1 / RFU, LARP1B / Fold change vs veh, LARP1B / RFU, RASA1 / Fold change vs veh, RASA1 / RFU, RB1 / Fold change vs veh, RB1 / RFU, PPFIA1 / Fold change vs veh, PPFIA1 / RFU, MAT2A / Fold change vs veh, MAT2A / RFU, CCT5 / Fold change vs veh, CCT5 / RFU, WDR92 / Fold change vs veh, WDR92 / RFU, CUX1 / Fold change vs veh, CUX1 / RFU, TTC7A / Fold change vs veh, TTC7A / RFU, TMEM135 / Fold change vs veh, TMEM135 / RFU, DEPTOR / Fold change vs veh, DEPTOR / RFU, CPM / Fold change vs veh, CPM / RFU, DNAJB6 / Fold change vs veh, DNAJB6 / RFU, CACNA2D3 / Fold change vs veh, CACNA2D3 / RFU, DTX4 / Fold change vs veh, DTX4 / RFU, TFCP2 / Fold change vs veh, TFCP2 / RFU, GMCL1 /// GMCL1P1 / Fold change vs veh, GMCL1 /// GMCL1P1 / RFU, AEBP2 / Fold change vs veh, AEBP2 / RFU, SNHG1 /// SNORD22 /// SNORD25 /// SNORD26 /// SNORD27 /// SNORD28 /// SNORD29 /// SNORD31 / Fold change vs veh, SNHG1 /// SNORD22 /// SNORD25 /// SNORD26 /// SNORD27 /// SNORD28 /// SNORD29 /// SNORD31 / Fold change (Aza/veh), C12orf56 (ProbeSet 11735607_a_at) / Fold change (ACY-1035/veh), C12orf56 (ProbeSet 11735607_a_at) / Fold change (Aza/veh), FGFR1OP (ProbeSet 11751329_s_at) / Fold change (ACY-1035/veh), FGFR1OP (ProbeSet 11751329_s_at) / Fold change (Aza/veh), VPS36 (ProbeSet 11739960_a_at) / Fold change (ACY-1035/veh), VPS36 (ProbeSet 11739960_a_at) / RFU SYPL1 (11715823_x_at) / Fold change /veh SYPL1 (11715823_x_at) / RFU IGFBP7 (11715501_s_at) / Fold change /veh IGFBP7 (11715501_s_at) / RFU REEP3 (11722064_at) / Fold change /veh REEP3 (11722064_at) / RFU IGLL1 (11728026_x_at) / Fold change /veh IGLL1 (11728026_x_at): dose or concentration left out as unconfirmed.

Take `Nc1ncn([C@@H]2O[C@H](CO)[C@@H](O)[C@H]2O)c(=O)n1` [azacitidine]: the “Fold change vs veh, BIVM-ERCC5 /// ERCC5” value turned out to be 0.92.
